Experimental data taken from patent publication US20080076826A1, “POLYMORPHIC CRYSTAL OF 4'-{2-[ (1S, 2R) - 2- HYDROXY -2- (4-HYDROXYPHENYL) -1- METHYLETHYLAMINO] ETHOXY} - 3 - ISOPROPYL-3', 5' -DIMETHYLBIPHENYL - 4 - CARBOXYLIC ACID HYDROCHLORIDE” (KISSEI PHARMACEUTICAL CO., LTD., priority 2005, published 2008).

Legend:
Format in all cases: physicochemical
[1] = Solid stability (Test Example 2): purity after storage for 8 weeks under four conditions
Protocol: Each of (A) the α type crystal of biphenylcarboxylic acid hydrochloride (purity 99.8%) and (B) the γ type crystal of biphenylcarboxylic acid hydrochloride (purity 99.8%) were stored (1) at 40° C. for 8 weeks, (2) at 60° C. for 8 weeks, (3) at 40° C. and at a relative humidity of 75% for 8 weeks and (4) at 40° C. and at a relative humidity of 90% for 8 weeks.

[2] = Crystal form stability during preservation under usual conditions or medicine preparation steps; conditions: preservation under usual conditions (25° C., 60% relative humidity) or during pressurization, pulverization and like preparation steps
[3] = Solid stability (Test Example 1): purity after storage at 60° C., 75% relative humidity, 5 days; conditions: stored at 60° C. and relative humidity of 75% for 5 days; hydrochloride
Protocol: Each of (1) amorphous biphenylcarboxylic acid hydrochloride (purity: 97.22%), (2) α type crystal of biphenylcarboxylic acid hydrochloride (purity: 99.56%) and (3) β type crystal of biphenylcarboxylic acid hydrochloride (purity: 99.84%) was stored at 60° C. and at a relative humidity of 75% for 5 days. Purities after the storage were (1) 94.99%, (2) 99.55% and (3) 99.65%, respectively.

[4] = stored at 40° C. and relative humidity of 75% for 8 weeks
[5] = stored at 40° C. and relative humidity of 90% for 8 weeks

Compound	Purity after the storage [1, 4]	Purity after the storage [1, 5]	Purity after the storage ([1]; stored at 40° C. for 8 weeks)	Purity after the storage ([1]; stored at 60° C. for 8 weeks)	Change of crystal form [2]	Purity after the storage [3]
4′-{2-[(1S,2R)-2-hydroxy-2-(4-hydroxyphenyl)-1-methylethylamino]ethoxy}-3-isopropyl-3′,5′-dimethylbiphenylcarboxylic acid hydrochloride [γ type crystal]	99.87%	98.20%	99.82%	99.88%	do not cause mutual changes in the crystal forms	–
Cc1cc(-c2ccc(C(=O)O)c(C(C)C)c2)cc(C)c1OCCN[C@@H](C)[C@H](O)c1ccc(O)cc1.Cl [amorphous biphenylcarboxylic acid hydrochloride] [4′-{2-[(1S,2R)-2-hydroxy-2-(4-hydroxyphenyl)-1-methylethylamino]ethoxy}-3-isopropyl-3′,5′-dimethylbiphenyl-4-carboxylic acid hydrochloride, reference compound]	–	–	–	–	–	94.99%
Cc1cc(-c2ccc(C(=O)O)c(C(C)C)c2)cc(C)c1OCCN[C@@H](C)[C@H](O)c1ccc(O)cc1.Cl [α type crystal, 4′-{2-[(1S,2R)-2-hydroxy-2-(4-hydroxyphenyl)-1-methylethylamino]ethoxy}-3-isopropyl-3′,5′-dimethylbiphenyl-4-carboxylic acid hydrochloride]	99.58%	99.51%	99.79%	99.78%	do not cause mutual changes in the crystal forms	99.55%
Cc1cc(-c2ccc(C(=O)O)c(C(C)C)c2)cc(C)c1OCCN[C@@H](C)[C@H](O)c1ccc(O)cc1.Cl [β type crystal, 4′-{2-[(1S,2R)-2-hydroxy-2-(4-hydroxyphenyl)-1-methylethylamino]ethoxy}-3-isopropyl-3′,5′-dimethylbiphenyl-4-carboxylic acid hydrochloride]	–	–	–	–	do not cause mutual changes in the crystal forms	99.65%
